Source: paper PMC5844530, “Fosmetpantotenate (RE-024), a phosphopantothenate replacement therapy for pantothenate kinase-associated neurodegeneration: Mechanism of action and efficacy in nonclinical models” (PLoS ONE, 2018)
Values joined by “and” are separate entries in the source; they are usually repeats but may differ in a detail not shown here. Identical values can stand only once.

Columns and labels:
[1] = Pharmacokinetics in whole blood, CD-1 mice; conditions: blood; for concentration at 0.083 h / concentration at 0.167 h / concentration at 0.333 h / concentration at 0.5 h / concentration at 1 h / concentration at 2 h / concentration at 0.033 h / concentration at 4 h: male, CD-1, mouse, in vivo
[2] = Pharmacokinetics in whole blood, cynomolgus monkeys; conditions: blood; for AUC: single PO fosmetpantotenate 300 mg/kg, mean (individual values), N = 2, analyte = label
Experimental: The whole blood samples (0.5 mL) were collected into syringes that were prefilled with 2.5 mL of ice-cold 0.1% formic acid in acetonitrile. The volume ratio of the whole blood to 0.1% formic acid in acetonitrile was 1/5 (v/v). Samples were frozen (-70°C) until analyzed by LC-MS/MS.
Standard curves and quality control (QC) samples were prepared fresh on the day of analysis by serial dilution of the standard mixture in quenched whole blood (1 part of blood to 5 parts of 0.1% formic acid in acetonitrile) and centrifuged. […] The frozen study samples were thawed in an ice/water bath and centrifuged. Supernatant (50 μL) from standards, QC samples, and study samples was transferred to a 96-well plate and dried completely under nitrogen. The dried residues were reconstituted with 100 μL of 0.1% formic acid in water containing internal standard (5 ng/mL of ^15N/^13C3-RE-024-02) and analyzed by LC-MS/MS.
LC-MS/MS analysis for blood pharmacokinetic samples: Samples were analyzed using an Agilent 1100 binary pump (Agilent Technologies, Santa Clara, CA, USA), connected to an AB Sciex API 6500 mass spectrometer (SCIEX, Framingham, MA, USA). An electrospray ionization source was used, scanning in the positive mode. […] The chromatography column was a Varian Metasil AQ 120–5 C18 column, 5 μm, 50 x 2.00 mm (Part No. A0530050X020) at ambient temperature, with a 0.5 mL/min flow rate and a 20 μL injection volume. Mobile phase (A) consisted of 0.1% formic acid in water; while mobile phase (B) consisted of 0.1% formic acid in acetonitrile:water (9:1, v/v).
Quantitation of in vivo samples: Peak areas were integrated using Analyst software (AB Sciex, Concord, Ontario, Canada). […] Calibration standards (at a minimum 7 per curve) were fit by linear regression with (1/x^2) weighting. QC samples were used (triplicate) at 3 concentrations for all tandem mass spectrometry (MS/MS) runs.
Pharmacokinetic calculations: PK analysis was performed using Phoenix WinNonlin®, Build 6.3.0.395 (Certara, Princeton, NJ, USA) using a non-compartmental model (PO dose = model 200 for extravascular dosing). […] Post-dose concentrations below the limit of quantitation (BLQ) were omitted from calculation.

[3] = male cynomolgus monkeys, fosmetpantotenate 300 mg/kg oral, 0 hr
[4] = male cynomolgus monkeys, fosmetpantotenate 300 mg/kg oral, 0.033 hr
[5] = male cynomolgus monkeys, fosmetpantotenate 300 mg/kg oral, 8 hr

SMILES: COC(=O)CCNC(=O)[C@H](O)C(C)(C)COP(=O)(N[C@@H](C)C(=O)OC)Oc1ccccc1 (mixture of isomers) [Fosmetpantotenate]
- Conc. ([1]; fosmetpantotenate 100 mg/kg PO, 0.033 hr, individual animals): 6.22 nM and BQL and 218.78 ^(a) nM and 9.40 nM
- Conc. ([1]; fosmetpantotenate 100 mg/kg PO, 0.083 hr, individual animals): BQL and 1.94 nM
- Conc. ([1]; fosmetpantotenate 100 mg/kg PO, 0.167 hr, individual animals): BQL and 2.30 nM
- Conc. ([1]; fosmetpantotenate 100 mg/kg PO, 0.333 hr, individual animals): 2.38 nM and 1.98 nM
- Conc. ([1]; fosmetpantotenate 100 mg/kg PO, 0.5 hr, individual animals): BQL and 1.43 nM
- Conc. ([1]; fosmetpantotenate 100 mg/kg PO, 1 hr, individual animals): BQL and 1.77 nM
- Conc. ([1]; fosmetpantotenate 100 mg/kg PO, 2 hr, individual animals): BQL
- Mean Conc. ([1]; fosmetpantotenate 100 mg/kg PO, 4 hr): BQL
- Conc. ([1]; fosmetpantotenate 100 mg/kg PO, 4 hr, individual animals): BQL
- Mean Conc. ([1]; fosmetpantotenate 100 mg/kg PO, 8 hr): BQL
- Conc. ([1]; fosmetpantotenate 100 mg/kg PO, 8 hr, individual animals): BQL
- Conc. ([1]; fosmetpantotenate 300 mg/kg PO, 0.033 hr, individual animals): 1.41 nM and 49.95 nM and 66.65 nM and 2.76 nM
- Conc. ([1]; fosmetpantotenate 300 mg/kg PO, 0.083 hr, individual animals): 5.50 nM and 4.59 nM and 18.72 nM and 28.96 nM
- Conc. ([1]; fosmetpantotenate 300 mg/kg PO, 0.167 hr, individual animals): 1.62 nM and 1.56 nM and 3.71 nM and BQL
- Conc. ([1]; fosmetpantotenate 300 mg/kg PO, 0.333 hr, individual animals): 1.22 nM and 1.07 nM and 1.14 nM
- Conc. ([1]; fosmetpantotenate 300 mg/kg PO, 0.5 hr, individual animals): 1.14 nM and 1.24 nM
- Conc. ([1]; fosmetpantotenate 300 mg/kg PO, 1 hr, individual animals): BQL
- Mean Conc. ([1]; fosmetpantotenate 300 mg/kg PO, 2 hr): BQL
- Conc. ([1]; fosmetpantotenate 300 mg/kg PO, 2 hr, individual animals): BQL
- Conc. ([1]; fosmetpantotenate 300 mg/kg PO, 4 hr, individual animals): BQL
- Mean Conc. ([1]; fosmetpantotenate 300 mg/kg PO, 8 hr): BQL
- Conc. ([1]; fosmetpantotenate 300 mg/kg PO, 8 hr, individual animals): BQL
- Fosmetpantotenate Conc. ([1]; male CD-1 mice, fosmetpantotenate 700 mg/kg oral, 0.033 hr, individual animals, BQL <1.02 nM): 61.71 nM and 230.17 nM and 51.34 nM and 195.45 nM
- Fosmetpantotenate Conc. ([1]; male CD-1 mice, fosmetpantotenate 700 mg/kg oral, 0.083 hr, individual animals, BQL <1.02 nM): 24.28 nM and 3756.01(a) nM and 8.28 nM and 16.06 nM
- Fosmetpantotenate Conc. ([1]; male CD-1 mice, fosmetpantotenate 700 mg/kg oral, 0.167 hr, individual animals, BQL <1.02 nM): 575.42 nM and 158.08 nM and 6.93 nM and 488.15 nM
- Fosmetpantotenate Conc. ([1]; male CD-1 mice, fosmetpantotenate 700 mg/kg oral, 0.333 hr, individual animals, BQL <1.02 nM): 22.76 nM
- Fosmetpantotenate Conc. ([1]; male CD-1 mice, fosmetpantotenate 700 mg/kg oral, 0.5 hr, individual animals, BQL <1.02 nM): 3.33 nM and 21.75 nM and 6.47 nM and 283.28 nM
- Fosmetpantotenate Conc. ([1]; male CD-1 mice, fosmetpantotenate 700 mg/kg oral, 1 hr, individual animals, BQL <1.02 nM): 128.99 nM and 6.41 nM and 3.33 nM and 67.53 nM
- Fosmetpantotenate Conc. ([1]; male CD-1 mice, fosmetpantotenate 700 mg/kg oral, 2 hr, individual animals, BQL <1.02 nM): 1.29 nM and 1.18 nM and 1.64 nM and 16.31 nM
- Fosmetpantotenate Conc. ([1]; male CD-1 mice, fosmetpantotenate 700 mg/kg oral, 4 hr, individual animals, BQL <1.02 nM): BQL
- Fosmetpantotenate Conc. ([1]; male CD-1 mice, fosmetpantotenate 700 mg/kg oral, 8 hr, individual animals, BQL <1.02 nM): BQL
- Fosmetpantotenate Mean Conc. ([1]; male CD-1 mice, fosmetpantotenate 700 mg/kg oral, 8 hr, mean, BQL <1.02 nM): BQL
- concentration at 0.083 h ([1]; 100 mg/kg, Conc., fosmetpantotenate 100 mg/kg PO, 0.083 hr, individual animals): 2 nM
- concentration at 0.167 h ([1]; 100 mg/kg, Conc., fosmetpantotenate 100 mg/kg PO, 0.167 hr, individual animals): 1.31 nM
- concentration at 0.333 h ([1]; 100 mg/kg, Conc., fosmetpantotenate 100 mg/kg PO, 0.333 hr, individual animals): 1.31 nM
- concentration at 0.5 h ([1]; 100 mg/kg, Conc., fosmetpantotenate 100 mg/kg PO, 0.5 hr, individual animals): 1.35 nM
- concentration at 1 h ([1]; 100 mg/kg, Conc., fosmetpantotenate 100 mg/kg PO, 1 hr, individual animals): 1.26 nM
- concentration at 2 h ([1]; 100 mg/kg, Conc., fosmetpantotenate 100 mg/kg PO, 2 hr, individual animals): 2.97 nM
- concentration at 0.033 h ([1]; 100 mg/kg, Mean Conc., fosmetpantotenate 100 mg/kg PO, 0.033 hr): 7.81 nM
- concentration at 0.083 h ([1]; 100 mg/kg, Mean Conc., fosmetpantotenate 100 mg/kg PO, 0.083 hr): 1.97 nM
- concentration at 0.167 h ([1]; 100 mg/kg, Mean Conc., fosmetpantotenate 100 mg/kg PO, 0.167 hr): 1.8 nM
- concentration at 0.333 h ([1]; 100 mg/kg, Mean Conc., fosmetpantotenate 100 mg/kg PO, 0.333 hr): 1.74 nM
- concentration at 0.5 h ([1]; 100 mg/kg, Mean Conc., fosmetpantotenate 100 mg/kg PO, 0.5 hr): 1.39 nM
- concentration at 1 h ([1]; 100 mg/kg, Mean Conc., fosmetpantotenate 100 mg/kg PO, 1 hr): 1.52 nM
- concentration at 2 h ([1]; 100 mg/kg, Mean Conc., fosmetpantotenate 100 mg/kg PO, 2 hr): 2.97 nM
- concentration at 0.333 h ([1]; 300 mg/kg, Conc., fosmetpantotenate 300 mg/kg PO, 0.333 hr, individual animals): 1.43 nM
- concentration at 0.5 h ([1]; 300 mg/kg, Conc., fosmetpantotenate 300 mg/kg PO, 0.5 hr, individual animals): 1.83 nM
- concentration at 1 h ([1]; 300 mg/kg, Conc., fosmetpantotenate 300 mg/kg PO, 1 hr, individual animals): 1.14 nM
- concentration at 4 h ([1]; 300 mg/kg, Conc., fosmetpantotenate 300 mg/kg PO, 4 hr, individual animals): 1.03 nM
- concentration at 0.033 h ([1]; 300 mg/kg, Mean Conc., fosmetpantotenate 300 mg/kg PO, 0.033 hr): 30.2 nM
- concentration at 0.083 h ([1]; 300 mg/kg, Mean Conc., fosmetpantotenate 300 mg/kg PO, 0.083 hr): 14.4 nM
- concentration at 0.167 h ([1]; 300 mg/kg, Mean Conc., fosmetpantotenate 300 mg/kg PO, 0.167 hr): 2.3 nM
- concentration at 0.333 h ([1]; 300 mg/kg, Mean Conc., fosmetpantotenate 300 mg/kg PO, 0.333 hr): 1.22 nM
- concentration at 0.5 h ([1]; 300 mg/kg, Mean Conc., fosmetpantotenate 300 mg/kg PO, 0.5 hr): 1.36 nM
- concentration at 1 h ([1]; 300 mg/kg, Mean Conc., fosmetpantotenate 300 mg/kg PO, 1 hr): 1.14 nM
- concentration at 4 h ([1]; 300 mg/kg, Mean Conc., fosmetpantotenate 300 mg/kg PO, 4 hr): 1.03 nM
- concentration at 0.333 h ([1]; 700 mg/kg, Fosmetpantotenate Conc., male CD-1 mice, fosmetpantotenate 700 mg/kg oral, 0.333 hr, individual animals, BQL <1.02 nM): 24.4 nM
- concentration at 4 h ([1]; 700 mg/kg, Fosmetpantotenate Conc., male CD-1 mice, fosmetpantotenate 700 mg/kg oral, 4 hr, individual animals, BQL <1.02 nM): 1.14 nM
- concentration at 0.033 h ([1]; 700 mg/kg, Fosmetpantotenate Mean Conc., male CD-1 mice, fosmetpantotenate 700 mg/kg oral, 0.033 hr, mean, BQL <1.02 nM): 135 nM
- concentration at 0.083 h ([1]; 700 mg/kg, Fosmetpantotenate Mean Conc., male CD-1 mice, fosmetpantotenate 700 mg/kg oral, 0.083 hr, mean, BQL <1.02 nM): 16.2 nM
- concentration at 0.167 h ([1]; 700 mg/kg, Fosmetpantotenate Mean Conc., male CD-1 mice, fosmetpantotenate 700 mg/kg oral, 0.167 hr, mean, BQL <1.02 nM): 307 nM
- concentration at 0.333 h ([1]; 700 mg/kg, Fosmetpantotenate Mean Conc., male CD-1 mice, fosmetpantotenate 700 mg/kg oral, 0.333 hr, mean, BQL <1.02 nM): 23.6 nM
- concentration at 0.5 h ([1]; 700 mg/kg, Fosmetpantotenate Mean Conc., male CD-1 mice, fosmetpantotenate 700 mg/kg oral, 0.5 hr, mean, BQL <1.02 nM): 78.7 nM
- concentration at 1 h ([1]; 700 mg/kg, Fosmetpantotenate Mean Conc., male CD-1 mice, fosmetpantotenate 700 mg/kg oral, 1 hr, mean, BQL <1.02 nM): 51.6 nM
- concentration at 2 h ([1]; 700 mg/kg, Fosmetpantotenate Mean Conc., male CD-1 mice, fosmetpantotenate 700 mg/kg oral, 2 hr, mean, BQL <1.02 nM): 5.11 nM
- concentration at 4 h ([1]; 700 mg/kg, Fosmetpantotenate Mean Conc., male CD-1 mice, fosmetpantotenate 700 mg/kg oral, 4 hr, mean, BQL <1.02 nM): 1.14 nM
- AUC [2]: 34,400 (13000, 55800) nM*h
- AUC ([2]; cynomolgus monkey, in vivo, po, 300 mg/kg, AUC): 34 µM·h
- Fosmetpantotenate Mean Conc. [2, 3]: BQL
- Fosmetpantotenate blood concentration, Cyno #1 [2, 3]: BQL
- Fosmetpantotenate blood concentration, Cyno #2 [2, 3]: BQL
- Fosmetpantotenate Mean Conc. [2, 4]: BQL
- Fosmetpantotenate blood concentration, Cyno #1 [2, 4]: BQL
- Fosmetpantotenate blood concentration, Cyno #2 [2, 4]: BQL
- Fosmetpantotenate Mean Conc. [2, 5]: BQL
- Fosmetpantotenate blood concentration, Cyno #1 [2, 5]: BQL
- Fosmetpantotenate blood concentration, Cyno #2 [2, 5]: BQL
- concentration at 0.083 h ([2]; male, cynomolgus monkey, in vivo, 300 mg/kg, Fosmetpantotenate Mean Conc., male cynomolgus monkeys, fosmetpantotenate 300 mg/kg oral, 0.083 hr): 197 nM
- concentration at 0.167 h ([2]; male, cynomolgus monkey, in vivo, 300 mg/kg, Fosmetpantotenate Mean Conc., male cynomolgus monkeys, fosmetpantotenate 300 mg/kg oral, 0.167 hr): 906 nM
